Experimental data reported in PMC12352619, “Phylogeny-guided discovery of a promiscuous P450 macrocyclase for the production of diverse atropopeptides” (Chemical Science, 2025).

Tests used:
VCAM1 = assay type: cell-based, mouse; settings: b.End.3 cells, 1 µg/ml LPS, peptide 1 µg/ml added 8 hours after stimulation, for 60 h, flow cytometry, n = 6 technical replicates
[1] = system: B/Massachusetts/71 (Massachusetts/B); assay: Screening of antiviral activity in MDCK II cells, Massachusetts/B; assay type: cell-based, influenza virus; settings: for antiviral effect: MOI 0.001, 48 h, CellTiter-Glo, normalized to aprotinin = 100%; for antiviral efficacy compared among the tested atropopeptides: statement made for the four strains together
[2] = system: B/Malaysia/2506/2004 (Malaysia/B); assay: Screening of antiviral activity in MDCK II cells, Malaysia/B; assay type: cell-based, influenza virus; settings: for antiviral effect: MOI 0.001, 48 h, CellTiter-Glo, normalized to aprotinin = 100%; for antiviral efficacy compared among the tested atropopeptides: statement made for the four strains together
MDCK II cells = settings: 100 µM, 48 h, CellTiter-Glo
[3] = system: A/Hamburg/05/2009 (H1N1pdm); assay: Screening of antiviral activity in MDCK II cells, H1N1pdm; assay type: cell-based, influenza virus; settings: for antiviral effect: MOI 0.001, 48 h, CellTiter-Glo, normalized to aprotinin = 100%; for antiviral efficacy compared among the tested atropopeptides: statement made for the four strains together
A/Hessen/1/2003 (H3N2) = assay: Screening of antiviral activity in MDCK II cells, H3N2; assay type: cell-based, influenza virus; settings: for antiviral effect: MOI 0.001, 48 h, CellTiter-Glo, normalized to aprotinin = 100%; for antiviral efficacy compared among the tested atropopeptides: statement made for the four strains together
ICAM1 = assay type: cell-based, mouse; settings: b.End.3 cells, 1 µg/ml LPS, peptide 1 µg/ml added 8 hours after stimulation, for 60 h, flow cytometry, n = 6 technical replicates

Row | Substance | VCAM1 expression (mean fluorescence intensity) (VCAM1) | antiviral effect [1] | antiviral efficacy compared among the tested atropopeptides [1] | antiviral effect [2] | antiviral efficacy compared among the tested atropopeptides [2] | cytotoxicity toward MDCK II cells (cell viability, ATP) (MDCK II cells) | antiviral effect [3] | antiviral efficacy compared among the tested atropopeptides [3] | antiviral effect (A/Hessen/1/2003 (H3N2)) | antiviral efficacy compared among the tested atropopeptides (A/Hessen/1/2003 (H3N2)) | ICAM1 expression (mean fluorescence intensity) (ICAM1)
1 | H-WYIW-OH (also: sidechain bridge or staple (positions not given here)) [compound 1, scabrirubin CB-1, cyclic tetrapeptide from S. albus/pUWL-LauA + ScaB, C–N biaryl crosslink between Trp-1 and Trp-4] | unchanged | dose-dependent antiviral effect | comparable antiviral efficacies | dose-dependent antiviral effect | comparable antiviral efficacies | did not show cytotoxicity | dose-dependent antiviral effect | comparable antiviral efficacies | dose-dependent antiviral effect | comparable antiviral efficacies | slight reduction
2 | H-WYQWL-OH (also: sidechain bridge or staple (positions not given here)) [compound 3, scabrirubin CB-3, cyclic pentapeptide from S. albus/pUWL-SvaA + ScaB with C–N biaryl crosslink] | significantly reduced | dose-dependent antiviral effect | slightly reduced activity | dose-dependent antiviral effect | slightly reduced activity | did not show cytotoxicity | dose-dependent antiviral effect | slightly reduced activity | dose-dependent antiviral effect | slightly reduced activity | significantly reduced
3 | scabrirubin [reference compound] | slightly elevated | dose-dependent antiviral effect | comparable antiviral efficacies | dose-dependent antiviral effect | comparable antiviral efficacies | did not show cytotoxicity | dose-dependent antiviral effect | comparable antiviral efficacies | dose-dependent antiviral effect | comparable antiviral efficacies | slight reduction
